# Source: patent US8962674B2 (Tokyo Institute of Technology, priority 2006, dated 2015)
# Assays:
# [1] = target: recombinant human β-secretase (rhBACE-1) (Homo sapiens (Human), UniProt P56817); assay: β-Secretase enzyme inhibition assay (Test Example 1); type: biochemical; settings: compound solution 3 μM (FIG. 1 legend: 1.0 μM), 37° C., 2 hr, fluorescent substrate peptide
# Procedure: β-Secretase Enzyme Inhibition Assay
# Compounds were dissolved in dimethylsulfoxide (DMSO), and further diluted in 0.1 M sodium acetate buffer (with 150 mM sodium chloride, pH 4.5). The solution with no compound was used as a negative control. Then, 100 μL of these solutions (compound concentration: 3 μM), 1 μL of recombinant human β-secretase (rhBACE-1, R&D), and 5 μL of the fluorescent substrate peptide were mixed in a black 96-well plate (Nunc). After mixtures were incubated in the dark at 37° C. for 2 hr, the fluorescence intensities of the mixtures were measured by fluorescence microplate reader (Wallac) at 540 nm for excitation and at 590 nm for emission. The inhibition ratio was calculated as a percentage of the negative control. The sequence of the peptide was […] and labeled with fluorescent donor (Cy3) at Ser-1 and with quencher (Cy5Q) at Lys-9, respectively (Invitrogen).
# recombinant human BACE-1 = recombinant human BACE-1 (Homo sapiens (Human), UniProt P56817); assay: Calculation of 50% inhibitory concentration (IC50) of BACE-1 (Test Example 5); type: biochemical; settings: 37° C., 2.5 hr, fluorescent substrate peptide
# Chain of recombinant human BACE-1 (P56817 46-501): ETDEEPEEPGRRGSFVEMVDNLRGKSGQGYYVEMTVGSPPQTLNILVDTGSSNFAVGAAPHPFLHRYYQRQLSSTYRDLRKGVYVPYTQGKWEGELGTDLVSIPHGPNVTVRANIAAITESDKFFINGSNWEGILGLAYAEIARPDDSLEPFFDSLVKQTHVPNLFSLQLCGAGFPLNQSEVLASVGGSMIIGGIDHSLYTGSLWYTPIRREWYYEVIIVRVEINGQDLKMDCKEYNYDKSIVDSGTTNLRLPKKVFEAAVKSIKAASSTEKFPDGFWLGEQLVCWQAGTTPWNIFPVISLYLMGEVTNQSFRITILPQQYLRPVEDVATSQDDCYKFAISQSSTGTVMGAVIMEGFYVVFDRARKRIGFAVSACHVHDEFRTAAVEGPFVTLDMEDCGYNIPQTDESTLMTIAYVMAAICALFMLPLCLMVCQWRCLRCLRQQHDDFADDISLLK
# Procedure: Compounds were dissolved in 0.1 M sodium acetate buffer (with 150 mM sodium chloride, pH 4.5) to each concentration with DMSO (concentration of compounds: 0.3, 0.9, 3.0, 9.0, and 30.0). The final concentration of DMSO was 10%. The solution with no compound was used as a negative control. 15 μL of these solutions, recombinant human BACE-1 (1.0 U/ml, Invitrogen), and the fluorescent substrate peptide (2.5 nM) were mixed in a black 384-well plate (Costar). Then, mixtures were incubated in the dark at 37° C. for 2.5 hr. The fluorescence intensities of the mixtures were measured at 540 nm for excitation and at 590 nm for emission. The inhibition ratio was calculated as a percentage of the negative control. The sequence of the peptide was […] and labeled with Cy3 at Ser-1 and with Cy5Q at Lys-9. Final concentrations of compounds were as follows: […].
# Chain of recombinant human β-secretase (rhBACE-1) (P56817 46-501): as above
SMILES,melting point [°C],inhibition of BACE-1 enzyme activity (inhibitory activities (%) shown in FIG. 1) [1],inhibitory effect on BACE-1 activity (IC50 shown in FIG. 2) (recombinant human BACE-1)
"COc1cc(/C=C/C(=O)CC(=O)/C=C/c2cccc(O)c2OC)ccc1O [CU001, (1E,6E)-1-(3-hydroxy-2-methoxyphenyl)-7-(4-hydroxy-3-methoxyphenyl)hepta-1,6-diene-3,5-dione]",152 to 155,strongly inhibited,
"CCn1c2ccccc2c2cc(/C=C/C(=O)CC(=O)/C=C/c3ccc(O)c(OC)c3)ccc21 [CU017, (1E,6E)-1-(9-ethyl-9H-carbazol-3-yl)-7-(4-hydroxy-3-methoxyphenyl)hepta-1,6-diene-3,5-dione]",165 to 169,strongly inhibited,
"O=C(/C=C/c1ccc(O)cc1)CC(=O)/C=C/c1ccc(O)c(F)c1 [CU030, (1E,6E)-1-(3-fluoro-4-hydroxyphenyl)-7-(4-hydroxyphenyl)hepta-1,6-diene-3,5-dione]",190 to 192,strongly inhibited,
"COc1cc(/C=C/C(=O)CC(=O)/C=C/c2ccc(O)c(C)c2)ccc1O [CU031, (1E,6E)-1-(4-hydroxy-3-methoxyphenyl)-7-(4-hydroxy-3-methylphenyl)hepta-1,6-diene-3,5-dione]",173 to 175,strongly inhibited,
"COc1ccc(/C=C/C(=O)CC(=O)/C=C/c2cc(O)cc(O)c2)cc1O [CU094, (1E,6E)-1-(3,5-dihydroxyphenyl)-7-(3-hydroxy-4-methoxyphenyl)hepta-1,6-diene-3,5-dione]",190 to 193,strongly inhibited,
"COc1ccc(/C=C/C(=O)CC(=O)/C=C/c2c(OC)cccc2OC)cc1O [CU104, (1E,6E)-1-(2,6-dimethoxyphenyl)-7-(3-hydroxy-4-methoxyphenyl)hepta-1,6-diene-3,5-dione]",74 to 80,strongly inhibited,
"O=C(/C=C/c1ccc(O)cc1)CC(=O)/C=C/c1c[nH]c2ccccc12 [CU110, (1E,6E)-1-(4-hydroxyphenyl)-7-(1H-indol-3-yl)hepta-1,6-diene-3,5-dione]",215 to 220,strongly inhibited,
"COc1ccc(/C=C/C(=O)CC(=O)/C=C/c2ccc(O)cc2)c2ccccc12 [CU116, (1E,6E)-1-(4-hydroxyphenyl)-7-(4-methoxynaphthalen-1-yl)hepta-1,6-diene-3,5-dione]",193 to 198,strongly inhibited,
"COc1cc(/C=C/C(=O)CC(=O)/C=C/c2cccn2C)ccc1O [CU121, (1E,6E)-1-(4-hydroxy-3-methoxyphenyl)-7-(1-methyl-1H-pyrrol-2-yl)hepta-1,6-diene-3,5-dione]",131 to 132,strongly inhibited,
"O=C(/C=C/c1ccc(O)cc1)CC(=O)/C=C/c1cc(O)ccc1[N+](=O)[O-] [CU131, (1E,6E)-1-(4-hydroxyphenyl)-7-(5-hydroxy-2-nitrophenyl)hepta-1,6-diene-3,5-dione]",187 to 194,,inhibitory effect on BACE-1 activity at relatively low concentration
"COc1cc(/C=C/C(=O)CC(=O)/C=C/c2cc(O)ccc2[N+](=O)[O-])ccc1O [CU132, (1E,6E)-1-(4-hydroxy-3-methoxyphenyl)-7-(5-hydroxy-2-nitrophenyl)hepta-1,6-diene-3,5-dione]",147 to 152,,inhibitory effect on BACE-1 activity at relatively low concentration
"COc1ccc(/C=C/C(=O)CC(=O)/C=C/c2cc(O)ccc2[N+](=O)[O-])cc1O [CU133, (1E,6E)-1-(3-hydroxy-4-methoxyphenyl)-7-(5-hydroxy-2-nitrophenyl)hepta-1,6-diene-3,5-dione]",107 to 111,,inhibitory effect on BACE-1 activity at relatively low concentration
"COc1ccc(/C=C/C(=O)CC(=O)/C=C/c2cccc(O)c2OC)cc1O [CU176, (1E,6E)-1-(3-hydroxy-2-methoxyphenyl)-7-(3-hydroxy-4-methoxyphenyl)hepta-1,6-diene-3,5-dione]",190 to 192,strongly inhibited,
"O=C(/C=C/c1ccc(O)cc1)CC(=O)/C=C/c1ccc2[nH]ccc2c1 [CU187, (1E,6E)-1-(4-hydroxyphenyl)-7-(1H-indol-5-yl)hepta-1,6-diene-3,5-dione]",222 to 226,strongly inhibited,
"COc1ccc(/C=C/C(=O)CC(=O)/C=C/c2ccc3[nH]ccc3c2)cc1O [CU193, (1E,6E)-1-(3-hydroxy-4-methoxyphenyl)-7-(1H-indol-5-yl)hepta-1,6-diene-3,5-dione]",182 to 185,strongly inhibited,
"CN(C)c1ccc(/C=C/C(=O)CC(=O)/C=C/c2ccc(O)cc2)c([N+](=O)[O-])c1 [CU194, (1E,6E)-1-(4-dimethylamino-2-nitrophenyl)-7-(4-hydroxyphenyl)hepta-1,6-diene-3,5-dione]",217 to 222,strongly inhibited,
"O=C(/C=C/c1cc(O)ccc1[N+](=O)[O-])CC(=O)/C=C/c1cc(O)ccc1[N+](=O)[O-] [CU381, (1E,6E)-1,7-bis(5-hydroxy-2-nitrophenyl)hepta-1,6-diene-3,5-dione]",253 to 262,,inhibitory effect on BACE-1 activity at relatively low concentration
"O=C(/C=C/c1ccc(O)cc1)CC(=O)/C=C/c1c[nH]c2cccc([N+](=O)[O-])c12 [CU461, (1E,6E)-1-(4-hydroxyphenyl)-7-(4-nitro-1H-indol-3-yl)hepta-1,6-diene-3,5-dione]",228 to 232,,inhibitory effect on BACE-1 activity at relatively low concentration
"O=C(/C=C/c1ccc(O)cc1)CC(=O)/C=C/c1cc(OCc2ccccc2)ccc1[N+](=O)[O-] [CU475, (1E,6E)-1-(5-benzyloxy-2-nitrophenyl)-7-(4-hydroxyphenyl)hepta-1,6-diene-3,5-dione]",168 to 172,,inhibitory effect on BACE-1 activity at relatively low concentration
"O=C(/C=C/c1ccc(O)cc1)CC(=O)/C=C/c1cc(OCc2ccccc2)ccc1Br [CU531, (1E,6E)-1-(5-benzyloxy-2-bromophenyl)-7-(4-hydroxyphenyl)hepta-1,6-diene-3,5-dione]",,,inhibitory effect on BACE-1 activity at relatively low concentration
